Experiments:
[1] = target: T1, E. coli KARI Ec_IlvC variant Ec_IlvC^Q110A-his6 (Q110A), SEQ ID NO: 21 (Escherichia coli, UniProt P05793, Q110A); assay: KARI cuvette assay, purified Ec_IlvC^Q110A-his6; format: biochemical; conditions: relative to Ec_IlvC^his6 with NADPH
T1 sequence (P05793 with tags, fused parts or gaps Q110A): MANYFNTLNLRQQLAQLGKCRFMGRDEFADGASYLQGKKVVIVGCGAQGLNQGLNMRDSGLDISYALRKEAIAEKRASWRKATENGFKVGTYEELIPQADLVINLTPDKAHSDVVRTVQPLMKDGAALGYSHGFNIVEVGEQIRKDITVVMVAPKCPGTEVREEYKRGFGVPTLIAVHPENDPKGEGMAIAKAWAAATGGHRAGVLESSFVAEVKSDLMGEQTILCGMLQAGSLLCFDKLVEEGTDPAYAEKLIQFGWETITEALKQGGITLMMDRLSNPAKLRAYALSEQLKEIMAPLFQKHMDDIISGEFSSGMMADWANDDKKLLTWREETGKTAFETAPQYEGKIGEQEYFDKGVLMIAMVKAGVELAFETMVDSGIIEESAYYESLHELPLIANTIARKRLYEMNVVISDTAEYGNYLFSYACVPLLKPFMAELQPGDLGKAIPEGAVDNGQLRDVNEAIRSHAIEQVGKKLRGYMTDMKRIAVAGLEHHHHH
Experimental: (§1) KARI cuvette assay: KARI activity was assayed kinetically by monitoring the decrease in NAD(P)H concentration by measuring the absorbance at 340 nm. A reaction buffer was prepared containing 250 mM potassium phosphate pH 7, 1 mM DTT and 10 mM MgCl2. Cell pellets were resuspended (0.25 g wet weight/mL buffer) in 250 mM potassium phosphate (KPi) buffer containing 1 mM DTT and 10 mM MgCl2. The resuspended cells were lysed by sonication for 1 min with a 50% duty cycle and pelleted at 11000×g and 4° C. for 15 min. A reaction mixture consisting of 910 μl reaction buffer, 50 μl acetolactate, and 20 μl lysate was prepared in a cuvette. The reaction was initiated by addition of 20 μL of 10 mM NAD(P)H. A substrate free control was conducted using reaction buffer without the addition of acetolactate.
Purification of KARI: Cell pellets used for purification were resuspended in purification buffer A (20 mM Tris, 20 mM imidazol, 100 mM NaCl, 10 mM MgCl2, pH 7.4). KARI was purified by IMAC (Immobilized metal affinity chromatography) over a 1 ml Histrap High Performance (histrap HP) column pre-charged with Nickel (GE Healthcare) using an Akta FPLC system (GE Healthcare). […]

[2] = target: T2, E. coli KARI Ec_IlvC variant Ec_IlvC^6E6-his6 (A71S, R76D, S78D, Q110V), SEQ ID NO: 34 (Escherichia coli, UniProt P05793, A71S/Q110V/R76D/S78D); assay: KARI assay, purified Ec_IlvC^6E6-his6; format: biochemical
T2 construct: T37 values cited for the gene on pGV1975
T2 sequence (P05793 with tags, fused parts or gaps A71S/R76D/S78D/Q110V): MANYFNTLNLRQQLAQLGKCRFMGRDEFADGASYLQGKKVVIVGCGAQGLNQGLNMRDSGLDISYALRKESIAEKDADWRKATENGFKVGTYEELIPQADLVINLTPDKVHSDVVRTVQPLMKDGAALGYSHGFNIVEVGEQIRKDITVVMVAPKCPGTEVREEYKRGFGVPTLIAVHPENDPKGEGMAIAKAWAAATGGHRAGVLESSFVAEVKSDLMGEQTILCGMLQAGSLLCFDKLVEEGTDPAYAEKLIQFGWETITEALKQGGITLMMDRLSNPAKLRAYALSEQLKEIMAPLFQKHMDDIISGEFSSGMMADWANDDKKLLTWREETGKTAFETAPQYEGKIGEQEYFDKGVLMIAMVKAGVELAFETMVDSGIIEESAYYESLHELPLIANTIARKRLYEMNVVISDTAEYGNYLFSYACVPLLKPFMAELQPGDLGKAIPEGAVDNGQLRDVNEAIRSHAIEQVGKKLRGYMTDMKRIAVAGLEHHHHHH
Experimental: as §1, with “The reaction was initiated by addition of 20 μL of 10 mM NAD(P)H. A substrate free control was conducted using reaction buffer without the addition of acetolactate.” left out
Only 20% of the enzymes of the recombination library were active on NADH. After screening 1,000 clones using the NADH depletion assay at 340 nm, 26 KARI variants were selected for a rescreen by the high-throughput assay described in Example 14 and eight thereof were expressed in 25 ml LBamp medium in shake flasks according to the protocol for cell growth and protein expression in shake flasks as described in Example 14, purified according to the protocol for purification of KARI enzymes as described in Example 14, and NAD(P)H depletion at 340 nm was measured again. […] The KM values of variants Ec_llvC^2H10-his6 and Ec_llvC^6E6-his6 were measured and the catalytic efficiencies were calculated. […]

## NC(=O)C1=CN([C@@H]2O[C@H](COP(=O)(O)OP(=O)(O)OC[C@H]3O[C@@H](n4cnc5c(N)ncnc54)[C@H](O)[C@@H]3O)[C@@H](O)[C@H]2O)C=CC1 [NADH, nicotinamide adenine dinucleotide]
[1]
  (kcat/KM with NADH)/(kcat/KM of Ec_IlvC^his6 with NADPH): 13%
[2]; Example 15, expressed in E. coli BL21(DE3), purified
  kcat/KM: 74,045 M^−1 * s^−1
[2]; best variant, relative to wild-type with NADPH
  activity (in terms of kcat/KM) on NADH compared to wild-type activity on NADPH: 85%

Source: US8097440B1, “Engineered microorganisms capable of producing target compounds under anaerobic conditions” (Gevo, Inc., priority 2008, dated 2012)
